Converted amounts (≈) assume the structure as drawn.
Tests used:
[1] = DPPH radical scavenging assay; assay type: biochemical; details: read-out: SC50 (the source's name)
Description: The 1,1-diphenyl−2-picrylhydrazyl (DPPH) assay is a technique employed to assess the antioxidant potential of a chemical by measuring its efficacy in scavenging free radicals. DPPH produces stable free radicals in methanol. Upon exposure to an antioxidant, DPPH experiences a colour transformation from purple to yellow, which is quantified using an ELISA reader at a wavelength of 517 nm. The experiment is performed in a 96-well plate, where a 150 µM DPPH solution in 80% methanol is combined with test samples at different concentrations. The DPPH radical scavenging activity percentage is computed using the formula SC% = 1 − [ODt/ODc] × 100 (%), where SC50 (radical scavenging concentration of 50%) is the sample concentration necessary to eliminate 50% of DPPH radicals, as ascertained from the standard calibration curve. Trolox serves as a positive control in the experiment.

[2] = test system: human breast cancer cell line MCF-7; assay: SRB cytotoxicity assay, MCF-7; assay type: cell-based; details: MCF7, MCF-7, SRB assay, 48 h
Description: (§1) Human lung cancer cell line NCI-H460 (HTB-177), human breast cancer cell line MCF-7 (HTB-2), human cervical cancer cells HeLa (CCL-2), human liver cancer cell line HepG2 (HB-8065) and normal kidney epithelial cell line (LLCPK1) were purchased from the American Type Culture Collection (Manassas, Rockville). Cells were cultured at 37°C and 5% CO2 in Eagle’s minimal essential medium supplemented with 10% (v/v) FBS (Sigma), 2 mM L-glutamine (Sigma), 20 mM HEPES (Sigma), 0.025 μg ml^−1 amphotericin B (Sigma), 100 IU ml^−1 penicillin G (Sigma) and 100 μg ml^−1 streptomycin (Sigma). Cells used in this study were between passages 4 and 20.
(§2) The experiment was conducted as previously outlined, with certain variations. Cells were seeded at a density of 10 000 cells per well (MCF-7, Hep G2, HeLa) or 7500 cells per well (NCI-H460) in 96-well plates, grown for 24 h, and subsequently treated with compounds at varying doses for 48 h. Treated cells were fixed with cold 50% (w/v) trichloroacetic acid (Merck) solution for 1−3 h, subsequently washed and stained with 0.2% (w/v) SRB (Sigma) for 20 min. Following five washes with 1% acetic acid (Merck), the protein-bound dye was solubilized in a 10 mM Tris base solution (Promega). Optical density values were measured using a 96-well microtiter plate reader (Synergy HT, Biotek Instruments) at wavelengths of 492 and 620 nm. The growth inhibition percentage (Inh %) was determined using the formula: Inh % = (1 − [ODt/ODc]) × 100, where ODt and ODc represent the optical density values of the test and control samples, respectively. Camptothecin served as the positive control.

[3] = test system: human liver cancer cell line HepG2; assay: SRB cytotoxicity assay, HepG2; assay type: cell-based; details: 48 h
Description: as §1, §2

[4] = test system: human cervical cancer cells HeLa; assay: SRB cytotoxicity assay, HeLa; assay type: cell-based; details: 48 h
Description: as §1, §2

Bacillus subtilis = assay: Broth microdilution MIC, B. subtilis; assay type: cell-based
Description: The three bacteria—Escherichia coli (E. coli), methicillin-resistant Staphylococcus aureus (MRSA) and Bacillus subtilis (B. subtilis), and two fungi: Candida albicans (C. albicans) and Trichophyton mentagrophytes (T. mentagrophytes) were used in this study. The clinical isolates were obtained in 2019 from the Faculty of Biology and Biotechnology, University of Science, Vietnam National University.
All coumarin derivatives were evaluated for in vitro antibacterial and antifungal activities, and the minimum inhibitory concentration (MIC) was ascertained in µM using the broth microdilution method. The test organisms were cultivated and cultured for 48 h at 37°C. The 2-day-old bacterial cultures were emulsified in a small volume of Muller Hinton broth (MHB) and cultured at 37°C overnight to reach the logarithmic growth phase. The turbidity of each inoculum was subsequently corrected to McFarland standard no. 0.5 by the additional incorporation of MHB, resulting in an inoculum concentration of 1.5 × 10^8 CFU ml^−1. One hundred microlitres of MHB were dispensed into all wells of the 96-well microtiter plates, excluding the first column A. Subsequently, 200 µl of the working solution for each examined chemical was allocated to column A of each plate. […] The MIC was determined as the minimal concentration of substances that inhibited the colour change.

[5] = test system: normal kidney epithelial cell line (LLCPK1); assay: SRB cytotoxicity assay, normal cells LLCPK1; assay type: cell-based; details: Sus scrofa, LLC-PK1
Description: as §1, §2

| Compound | EC50 [1] | IC50 [2] | IC50 [3] | IC50 [4] | MIC (Bacillus subtilis) | IC50 [5] |
| --- | --- | --- | --- | --- | --- | --- |
| O=C(O)c1ccc(NCc2c(O)c3ccccc3oc2=O)cc1 [2c, 4-{[(4-hydroxy-2-oxo-2H-chromen-3-yl)methyl]amino}benzoic acid] | 59.7 µM | 61.4 µM | 56.5 µM | 54.9 µM | – | – |
| O=c1oc2ccccc2c(O)c1Cn1ccnc1 [2e, 3-[(1H-imidazol-1-yl)methyl]-4-hydroxy-2H-chromen-2-one] | 80.9 µM | 30.4 µM | 34.2 µM | 34.2 µM | – | – |
| O=c1oc2ccccc2c(O)c1CN1CCOCC1 [2g, 4-Hydroxy-3-(morpholinomethyl)-2H-chromen-2-one] | 72.2 µM | 42.7 µM | 50.2 µM | 31.5 µM | – | – |
| CCCNCc1c(O)c2ccccc2oc1=O [2h, 4-Hydroxy-3-[(propylamino)methyl]-2H-chromen-2-one] | 65.3 µM | 40.1 µM | 62.5 µM | 73.2 µM | – | – |
| Cc1c(C)c2c(c(C)c1O)CCC(C)(C(=O)O)O2 (stereo not shown) [Trolox, reference compound] | 6.12 ± 0.15 µM | – | – | – | – | – |
| CC[C@@]1(O)C(=O)OCc2c1cc1n(c2=O)Cc2cc3ccccc3nc2-1 [camptothecin, reference compound] | – | 3.76 ± 0.15 µM | 4.28 ± 0.201 µM | 2.38 ± 0.102 µM | – | – |
| CNCc1c(O)c2ccccc2oc1=O [compound 2a, 4-Hydroxy-3-[(methylamino)methyl]-2H-chromen-2-one] | 62.5 µM | 52 µM | 8.57 ± 0.42 µM | 39.3 µM | 25 µM (≈ 5.13 µg/mL) | 94.6 µM |
| CC(C)NCc1c(O)c2ccccc2oc1=O [compound 2b, 4-Hydroxy-3-[(isopropylamino)methyl]-2H-chromen-2-one] | 31.3 µM | 35.4 µM | 73.2 µM | 5.23 ± 0.12 µM | – | 97.3 µM |
| N#Cc1ccc(NCc2c(O)c3ccccc3oc2=O)cc1 [compound 2d, 4-{[(4-Hydroxy-2-oxo-2H−chromen-3-yl)methyl]amino}benzonitrile] | 35.8 µM | 2.54 ± 0.12 µM | 70.2 µM | 34.1 µM | – | 94.8 µM |
| O=c1oc2ccccc2c(O)c1CNC1CCCC1 [compound 2f, 3-[(Cyclopentylamino)methyl]-4-hydroxy-2H-chromen-2-one] | 45.9 µM | 54.2 µM | 49.7 µM | 57.3 µM | 75 µM (≈ 19.4 µg/mL) | – |
| O=c1oc2ccccc2c(O)c1CNc1ccc(S(=O)(=O)O)cc1 [compound 2i, 4-{[(4-Hydroxy-2-oxo−2H-chromen-3-yl)methyl]amino}benzenesulfonic acid] | 7.36 ± 0.18 µM | 85.2 µM | 75.2 µM | 80.2 µM | – | – |
| O=c1oc2ccccc2c(O)c1CNc1ccccc1 [compound 2j, 4-Hydroxy-3-[(phenylamino)methyl]-2H-chromen-2-one] | 53.3 µM | 95.5 µM | 68.1 µM | 84.7 µM | – | – |

Reference: PMC12520770, “Synthesis of a novel coumarin via the Mannich reaction: in vitro and in silico evaluation of anti-cancer, antimicrobial and antioxidant activities” (Royal Society Open Science, 2025)
